Assay results taken from patent publication US20010031865A1, “Substituted 3-phenyluracils” (priority 1991, published 2001).

Tests used:
[1] = test system: young, 4-leaved cotton plants of the Stoneville 825 variety; assay: Defoliation of young cotton plants (Use Example 1); assay type: in vivo; details: after 13 days
Protocol: The comparative agent used was
A 6,7-dihydrodipyrido[1,2-alpha:2′, 1′-c]pyridilium as the dibromide monohydrate salt (common name: Diquat®).
The comparative agent was used in the form-of the preformulated commercial product.
The test plants used were young, 4-leaved cotton plants (without cotyledons) of the Stoneville 825 variety, which were grown under greenhouse conditions (relative humidity from 50 to 70%; day/night temperature 27/20° C.).
The amount of water applied was equivalent to […]. After 13 days, the number of dropped leaves and the degree of defoliation in % were determined.

[2] = test system: undesirable broad-leaved plants and grasses; assay: Greenhouse herbicidal test, postemergence treatment; assay type: in vivo; details: for control of undesirable broad-leaved plants and grasses: postemergence use of 0.5 kg/ha, greenhouse
Protocol: The seeds of the test plants were sown separately according to species. For the purpose of the postemergence treatment, the test plants were grown in the test vessels themselves or were planted in the test vessels a few days beforehand. The active ingredients suspended or emulsified in water were not applied until a height of growth of from 3 to 15 cm, depending on the form of growth. The plants were kept at 10-25° C. or 20-35° C., according to species. The test periods extended over from 2 to 4 weeks. During this time, the plants were tended and their reaction to the individual treatments was evaluated. Rating was based on a scale from 0 to 100. 100 means no emergence of the plants or complete destruction of at least the above-ground parts and 0 means no damage on normal growth. The plants used in the greenhouse experiments consisted of the following species: [table]

[3] = converted application rate 0.10 kg/ha

In the case of `c1cc[n+]2c(c1)-c1cccc[n+]1CC2` [A, 6,7-dihydrodipyrido[1,2-alpha:2′, 1′-c]pyridilium, reference compound], the Defoliation [1, 3] is reported as 0%.
With `Cn1c(C(F)(F)F)cc(=O)n(-c2ccc(Cl)c(C=O)c2)c1=O` [compound 1.1, 3-(4-Chloro-3-formylphenyl)-2,4-dioxo-1-methyl-6-trifluoromethyl-1,2,3,4-tetrahydropyrimidine] the “control of undesirable broad-leaved plants and grasses” value [2] was “very readily controlled”.
`CCO/N=C/c1cc(-n2c(=O)cc(C(F)(F)F)[nH]c2=O)ccc1Cl` [compound 1.4, 3-[4-Chloro-3-(ethoximinomethyl)-phenyl]-2,4-dioxo-6-trifluoromethyl-1,2,3,4-tetrahydropyrimidine] gave a melting point of 221 to 223 °C.
In the case of `CCO/N=C/c1cc(-n2c(=O)cc(C(F)(F)F)n(C)c2=O)ccc1Cl` [compound 1.5, 3-[4-Chloro-3-(ethoximinomethyl)-phenyl]-2,4-dioxo-1-methyl-6-trifluoromethyl-1,2,3,4-tetrahydropyrimidine], the melting point is reported as 132 to 134 °C and the “control of undesirable broad-leaved plants and grasses” value [2] is reported as “very readily controlled”.
In the case of `CCCCOC(=O)/C(Cl)=C/c1cc(-n2c(=O)cc(C(F)(F)F)n(C)c2=O)ccc1Cl` [compound 1.15, 3-[4-Chloro-3-(2-chloro-2-butoxycarbonylethen-1-yl)-phenyl]-2,4-dioxo-1-methyl-6-trifluoromethyl-1,2,3,4-tetrahydropyrimidine], the “control of undesirable broad-leaved plants and grasses” value [2] is reported as “very readily controlled”.
In the case of `COC(=O)/C(C#N)=C/c1cc(-n2c(=O)cc(C(F)(F)F)n(C)c2=O)ccc1Cl` [compound 1.22, 3-[4-Chloro-3-(2-cyano-2-methoxycarbonylethenyl)-phenyl]-2,4-dioxo-1-methyl-6-trifluoromethyl-1,2,3,4-tetrahydropyrimidine], the “control of undesirable broad-leaved plants and grasses” value [2] is reported as “very readily controlled”.
For `CCOC(=O)N/N=C/c1cc(-n2c(=O)cc(C(F)(F)F)n(C)c2=O)ccc1Cl` [compound 1.91, 3-(4-Chloro-3-ethoxycarbonylhydrazonomethylphenyl)-2,4-dioxo-1-methyl-6-trifluoromethyl-1,2,3,4-tetrahydropyrimidine], the melting point was 219 to 221 °C.
In the case of `Cn1c(C(F)(F)F)cc(=O)n(-c2ccc(Cl)c(C3OCCCO3)c2)c1=O` [compound 2.1, 3-[4-Chloro-3-(1,3-dioxan-2-yl)-phenyl]-2,4-dioxo-1-methyl-6-trifluoromethyl-1,2,3,4-tetrahydropyrimidine], the “control of undesirable broad-leaved plants and grasses” value [2] is reported as “very readily controlled”.
In the case of `COC(=O)/C(Cl)=C/c1cc(-n2c(OC)nc(C(F)(F)F)cc2=O)ccc1Cl` [compound 3.1, 3-[4-Chloro-3-(2-chloro-2-methoxycarbonylethenyl)-phenyl]-2-methoxy-4-oxo-6-trifluoromethyl-3,4-dihydro-pyrimidine], the “control of undesirable broad-leaved plants” value ([2]; postemergence method, application rates of 0.06 and 0.03 kg/ha) is reported as “very readily controlled”, the Defoliation ([1]; converted application rate 0.05 kg/ha) is reported as 53% and the Defoliation [1, 3] is reported as 73%.
